20 compounds from patent US20240400515A1, “NPM1-DEPENDING LEUKEMIA AGENTS” (UNIVERSIDAD COMPLUTENSE DE MADRID, priority 2021, published 2024) can be followed below.

Assay [1] deals with OCI-AML3 (NPM1 C+). The experiment in a line: Viability assay (WST-1) in OCI-AML3 cell line. It is filed as cell-based. The settings on record: Homo sapiens, OCI-AML-3, viability percentage relative to vehicle, 24 h. Here is the method:
(§1) Two different acute myeloid leukemia cell lines, OCI-AML3 (NPM1 C+) and MOLM13 (NPM1 C−) were obtained from the DSMZ cell repository (Braunschweig, Germany). Cell lines were expanded and cryogenically frozen upon acquisition to establish stocks in liquid nitrogen until use. Cultured cells were maintained at 37° C. in a humidified incubator in an atmosphere of 5% CO2 and passaged every 2-3 days. RPMI media (Gibco/Life Technologies; Grand Island, NY) supplemented with 10% fetal bovine serum (FBS) (Hyclone) and 1% penicillin/streptomycin was used.
(§2) The sensitivity of the compounds on OCI-AML3 (NPM1 C+) and MOLM13 (NPM1 C−) cell viability was assessed as an in-vitro acute myeloid leukemia (AML) model. Briefly, cells were seeded at a density of 2×10^4 cells/100 μL/well in 96-well plates. Cell lines were treated for 24 h with the test compound diluted in DMSO at the concentration of 5 μM or vehicle (DMSO). Then, 10 μL of WST-1 solution ((2-(4-iodophenyl)-3-(4-nitrophenyl)-5-(2,4-disulfophenyl)-2H-tetrazolium monosodium salt, Merck) were added and the cells were incubated for 4 h at 37° C. The absorbance was measured at 450 nm using an Asys UVM 340 microplate reader (Biochrom Ltd., Cambridge, UK). The background absorbance of blank wells containing only medium was subtracted from each test well. The data were reported as viability percentage relative to vehicle, obtained from two or three independent experiments performed in triplicate (Table 1).

Assay [2] relates to MOLM13 (NPM1 C−). The experiment in a line: Viability assay (WST-1) in MOLM13 cell line. The settings on record: Homo sapiens, MOLM-13, viability percentage relative to vehicle, 24 h. It is filed as cell-based. Here is the method:
as §1, §2

Regarding `Cc1ccc([C@H]2Cc3[nH]c4ccccc4c3[C@@H](CCNC3CC3)[C@@H]2N)cc1` [Iaa, (2R,3R,4R)-4-[2-(Cyclopropylamino)ethyl]-2-(4-methylphenyl)-2,3,4,9-tetrahydro-1H-carbazol-3-amine], the viability at 5 µM turned out to be 1 ± 1% in assay [1] and 2 ± 2% in assay [2].
Consider `Cc1ccc([C@H]2Cc3[nH]c4ccc(Cl)cc4c3[C@@H](CCNCC3CC(F)(F)C3)[C@@H]2N)cc1` [Iab, (2R,3R,4R)-6-Chloro-4-(2-{[(3,3-difluorocyclobutyl)methyl]amino}ethyl)-2-(4-methylphenyl)-2,3,4,9-tetrahydro-1H-carbazol-3-amine], for which the viability at 5 µM in assay [1] amounted to 17 ± 4%; in assay [2], 14 ± 8%.
Taken in the same sequence, the figures for `CN[C@@H]1[C@@H](c2ccc(C)cc2)Cc2[nH]c3ccc(Cl)cc3c2[C@H]1CCNCC1CC(F)(F)C1` [Iac, (2R,3R,4R)-6-Chloro-4-(2-{[(3,3-difluorocyclobutyl)methyl]amino}ethyl)-N-methyl-2-(4-methylphenyl)-2,3,4,9-tetrahydro-1H-carbazol-3-amine] were 6% and 5 ± 1%.
For `COc1ccc2[nH]c3c(c2c1)[C@@H](CCNCC1CC1)[C@H](N)[C@@H](c1ccc(C)cc1)C3` [Iaf, (2R,3R,4R)-4-{2-[(Cyclopropylmethyl)amino]ethyl}-6-methoxy-2-(4-methylphenyl)-2,3,4,9-tetrahydro-1H-carbazol-3-amine], in that order: 39 ± 6% and 60 ± 2%.
Regarding `Cc1ccc([C@H]2Cc3[nH]c4ccc(Cl)cc4c3[C@@H](CCNCC3CC3)[C@@H]2N)cc1` [Iag, (2R,3R,4R)-6-Chloro-4-{2-[(cyclopropylmethyl)amino]ethyl}-2-(4-methylphenyl)-2,3,4,9-tetrahydro-1H-carbazol-3-amine], the viability at 5 µM was found to be 9 ± 5% in assay [1] and 10 ± 6% in assay [2].
Taken in the same sequence, the figures for `COc1ccc([C@H]2Cc3[nH]c4ccc(Cl)cc4c3[C@@H](CCNCC3CC3)[C@@H]2N)cc1` [Iah, (2R,3R,4R)-6-Chloro-4-{2-[(cyclopropylmethyl)amino]ethyl}-2-(4-methoxyphenyl)-2,3,4,9-tetrahydro-1H-carbazol-3-amine] were 26 ± 12% and 16 ± 2%.
Consider `Cc1ccc([C@H]2Cc3[nH]c4ccc(C)cc4c3[C@@H](CCNCC3CC3)[C@@H]2N)cc1` [Iai, (2R,3R,4R)-4-{2-[(Cyclopropylmethyl)amino]ethyl}-6-methyl-2-(4-methylphenyl)-2,3,4,9-tetrahydro-1H-carbazol-3-amine], for which the viability at 5 µM is 12 ± 2% in assay [1] and 6 ± 2% in assay [2].
For the compound `Cc1ccc([C@H]2Cc3[nH]c4ccc(F)cc4c3[C@@H](CCNCC3CC3)[C@@H]2N)cc1` [Iaj, (2R,3R,4R)-4-{2-[(Cyclopropylmethyl)amino]ethyl}-6-fluoro-2-(4-methylphenyl)-2,3,4,9-tetrahydro-1H-carbazol-3-amine], the viability at 5 µM turned out to be 7 ± 1% in assay [1] and 4 ± 1% in assay [2].
Turning to `CN[C@@H]1[C@@H](c2ccc(C)cc2)Cc2[nH]c3ccc(Cl)cc3c2[C@H]1CCNCC1CC1` [Iak, (2R,3R,4R)-6-Chloro-4-{2-[(cyclopropylmethyl)amino]ethyl}-N-methyl-2-(4-methylphenyl)-2,3,4,9-tetrahydro-1H-carbazol-3-amine], the viability at 5 µM in assay [1] is 1 ± 1%; in assay [2], 7 ± 2%.
For `Cc1ccc([C@H]2Cc3c(c4ccccc4n3C)[C@@H](CCNCC3CC3)[C@@H]2N)cc1` [Ial, (2R,3R,4R)-4-{2-[(Cyclopropylmethyl)amino]ethyl}-9-methyl-2-(4-methylphenyl)-2,3,4,9-tetrahydro-1H-carbazol-3-amine], in that order: 22 ± 2% and 17%.
For `Cc1ccc([C@H]2Cc3[nH]c4ccccc4c3[C@@H](CCNCC3CC3)[C@@H]2N)cc1` [Ib, (2R,3R,4R)-4-{2-[(Cyclopropylmethyl)amino]ethyl}-2-(4-methylphenyl)-2,3,4,9-tetrahydro-1H-carbazol-3-amine], in that order: 16% and 20 ± 5%.
Taken in the same sequence, the figures for `COc1ccc([C@@H]2Cc3[nH]c4ccccc4c3[C@H](CCNCC3CC3)[C@H]2N)cc1` [Id, (2S,3S,4S)-4-{2-[(Cyclopropylmethyl)amino]ethyl}-2-(4-methoxyphenyl)-2,3,4,9-tetrahydro-1H-carbazol-3-amine] were 33 ± 5% and 40%.
For the compound `N[C@@H]1[C@@H](c2ccc(C(F)(F)F)cc2)Cc2[nH]c3ccccc3c2[C@H]1CCNCC1CC1` [Ie, (2R,3R,4R)-4-{2-[(Cyclopropylmethyl)amino]ethyl}-2-[4-(trifluoromethyl)phenyl]-2,3,4,9-tetrahydro-1H-carbazol-3-amine], the viability at 5 µM in assay [1] worked out at 14 ± 5%; in assay [2], 13 ± 3%.
For `N[C@@H]1[C@@H](c2ccc(OC(F)(F)F)cc2)Cc2[nH]c3ccccc3c2[C@H]1CCNCC1CC1` [If, (2R,3R,4R)-4-{2-[(Cyclopropylmethyl)amino]ethyl}-2-[4-(trifluoromethoxy)phenyl]-2,3,4,9-tetrahydro-1H-carbazol-3-amine], in that order: 11 ± 4% and 12 ± 3%.
For `N[C@@H]1[C@@H](c2cccc(Cl)c2)Cc2[nH]c3ccccc3c2[C@H]1CCNCC1CC1` [Ih, (2R,3R,4R)-2-(3-Chlorophenyl)-4-{2-[(cyclopropylmethyl)amino]ethyl}-2,3,4,9-tetrahydro-1H-carbazol-3-amine], in that order: 25 ± 7% and 28 ± 10%.
Turning to `N[C@@H]1[C@@H](c2ccc(Cl)cc2)Cc2[nH]c3ccccc3c2[C@H]1CCNCC1CC1` [Ii, (2R,3R,4R)-2-(4-Chlorophenyl)-4-{2-[(cyclopropylmethyl)amino]ethyl}-2,3,4,9-tetrahydro-1H-carbazol-3-amine], the viability at 5 µM in assay [1] amounted to 13 ± 4%; in assay [2], 13 ± 1%.
For `COc1ccccc1[C@H]1Cc2[nH]c3ccccc3c2[C@@H](CCNCC2CC2)[C@@H]1N` [Ik, (2R,3S,4R)-4-{2-[(Cyclopropylmethyl)amino]ethyl}-2-(2-methoxyphenyl)-2,3,4,9-tetrahydro-1H-carbazol-3-amine], in that order: 23 ± 3% and 30 ± 2%.
Regarding `Cc1cccc([C@H]2Cc3[nH]c4ccccc4c3[C@@H](CCNCC3CC3)[C@@H]2N)c1` [Il, (2R,3R,4R)-4-{2-[(Cyclopropylmethyl)amino]ethyl}-2-(3-methylphenyl)-2,3,4,9-tetrahydro-1H-carbazol-3-amine], the figures for the viability at 5 µM in assay [1] and in assay [2] were 19 ± 7% and 32 ± 4%, respectively.
With `Cc1ccccc1[C@H]1Cc2[nH]c3ccccc3c2[C@@H](CCNCC2CC2)[C@@H]1N` [Im, (2R,3R,4R)-4-{2-[(Cyclopropylmethyl)amino]ethyl}-2-(2-methylphenyl)-2,3,4,9-tetrahydro-1H-carbazol-3-amine], the viability at 5 µM in assay [1] worked out at 36 ± 8%; in assay [2] it was 61 ± 7%.
For `N[C@@H]1[C@@H](c2ccccc2Cl)Cc2[nH]c3ccccc3c2[C@H]1CCNCC1CC1` [In, (2R,3S,4R)-2-(2-Chlorophenyl)-4-{2-[(cyclopropylmethyl)amino]ethyl}-2,3,4,9-tetrahydro-1H-carbazol-3-amine], in that order: 29 ± 1% and 28 ± 4%.

What is called viability is a read-out of living cells in per cent, often relative to untreated cells. A low value points to a greater loss of cells.
